One test has as its target T1, topo IIα (Homo sapiens, UniProt P11388).
T1 construct: gene TOP2A
Briefly: cell-free topo II relaxation assay of supercoiled pHOT1 plasmid DNA. It is filed as biochemical.

A further test deals with T2, Hsp90 (Homo sapiens, UniProt P07900).
T2 construct: gene HSP90AA1; HSP90 recombinant protein
Briefly: protein thermal shift assay (Sypro Orange), Tm increase at […] Apl-1. It is filed as binding.

Broadly, the IC50 is the concentration that gives 50% inhibition. Read a high IC50 as a need for much substance. The ΔTm is the change in melting temperature against a reference sample.

T1 sequence (P11388 whole entry): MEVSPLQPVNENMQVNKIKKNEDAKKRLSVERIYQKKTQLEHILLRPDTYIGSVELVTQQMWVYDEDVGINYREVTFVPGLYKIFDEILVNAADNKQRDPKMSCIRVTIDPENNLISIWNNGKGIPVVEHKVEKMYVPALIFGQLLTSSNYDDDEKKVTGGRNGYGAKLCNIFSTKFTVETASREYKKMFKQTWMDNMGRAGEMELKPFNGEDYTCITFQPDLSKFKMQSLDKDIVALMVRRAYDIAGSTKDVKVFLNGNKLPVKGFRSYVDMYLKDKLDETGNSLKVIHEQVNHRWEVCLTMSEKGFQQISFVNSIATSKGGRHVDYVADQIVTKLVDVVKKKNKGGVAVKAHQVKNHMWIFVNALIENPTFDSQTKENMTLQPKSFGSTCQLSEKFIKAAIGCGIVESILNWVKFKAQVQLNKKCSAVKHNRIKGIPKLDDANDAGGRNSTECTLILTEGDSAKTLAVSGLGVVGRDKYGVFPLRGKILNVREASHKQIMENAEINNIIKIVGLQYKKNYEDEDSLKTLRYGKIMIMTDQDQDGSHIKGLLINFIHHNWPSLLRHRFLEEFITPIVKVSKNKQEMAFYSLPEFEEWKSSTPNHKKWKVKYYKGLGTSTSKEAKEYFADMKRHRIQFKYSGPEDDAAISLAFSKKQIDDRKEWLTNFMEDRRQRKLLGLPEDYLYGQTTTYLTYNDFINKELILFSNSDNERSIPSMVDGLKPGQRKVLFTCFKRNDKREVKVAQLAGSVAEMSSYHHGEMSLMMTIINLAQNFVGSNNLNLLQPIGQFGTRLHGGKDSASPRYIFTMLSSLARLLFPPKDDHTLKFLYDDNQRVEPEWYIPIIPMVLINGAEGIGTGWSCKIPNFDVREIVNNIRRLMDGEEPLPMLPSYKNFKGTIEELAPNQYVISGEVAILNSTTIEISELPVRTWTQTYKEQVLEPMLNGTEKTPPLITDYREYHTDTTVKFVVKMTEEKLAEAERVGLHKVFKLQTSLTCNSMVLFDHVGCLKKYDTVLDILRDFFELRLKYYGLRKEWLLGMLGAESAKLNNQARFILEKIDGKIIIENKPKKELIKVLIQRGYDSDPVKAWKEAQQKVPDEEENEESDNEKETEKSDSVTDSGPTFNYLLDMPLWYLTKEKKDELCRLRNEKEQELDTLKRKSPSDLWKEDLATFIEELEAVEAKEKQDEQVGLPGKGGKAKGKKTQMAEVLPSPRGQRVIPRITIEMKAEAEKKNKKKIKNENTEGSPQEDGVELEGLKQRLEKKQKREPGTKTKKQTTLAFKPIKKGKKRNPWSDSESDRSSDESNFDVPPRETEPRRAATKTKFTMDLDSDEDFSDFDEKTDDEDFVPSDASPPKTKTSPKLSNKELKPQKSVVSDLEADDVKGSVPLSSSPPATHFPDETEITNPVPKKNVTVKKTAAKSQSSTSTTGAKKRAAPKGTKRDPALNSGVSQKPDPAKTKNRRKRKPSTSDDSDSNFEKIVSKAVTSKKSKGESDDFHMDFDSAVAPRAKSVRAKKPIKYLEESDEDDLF

At topo IIα, `COC1=C(Br)[C@H](O)[C@](O)(CC#N)C=C1Br` [Apl-1, aeroplysinin-1] gave an IC50 of 1.37 µM. Moreover, the ΔTm at 2950 µM at Hsp90 came out at 46.4 ± 7.4 °C.
